The record followed here is patent US20230023463A1, “COMPOSITION FOR PROMOTING HAIR THICKENING, COMPOSITION FOR SUSTAINING GROWTH PHASE IN HAIR CYCLE AND COMPOSITION FOR PROMOTING VEGF PRODUCTION, COMPOSITION FOR PROMOTING TRANSITION FROM RESTING PHASE TO GROWTH PHASE IN HAIR CYCLE AND COMPOSITION FOR PROMOTING FGF7 PRODUCTION, AND COMPOSITION FOR …” (priority 2020, published 2023).

Holding throughout (assay type): cell-based
The test system of experiment [1] is human hair papilla cells. Nature of the experiment: Proliferation of hair papilla cells, citrulline (Cell Counting kit-8). Conditions: 2 mM, cultured one day, P<0.01, FIG. 5. As to the method:
In the same manner as in Experimental Example 1, human hair papilla cells were cultured for 4 days, and seeded on a collagen-coated 96 well plate at a cell density of 2.5×10^3 cells/0.1 mL/well. The cells were cultured for one day in a carbon dioxide incubator (5 volume % carbon dioxide, 37° C.), and used for the evaluation of the proliferation of hair papilla cells. For the evaluation of the proliferation of hair papilla cells, the same evaluation medium as used in Experimental Example 1 was used.
L-citrulline was dissolved in the evaluation medium to prepare a solution.
In the above-mentioned hair papilla cell culture medium on the collagen-coated plate, the medium was replaced with the evaluation medium, the above-mentioned solution of L-citrulline was added to a concentration of 2 mM, and the cells were cultured for one day at 37° C., 5 volume % carbon dioxide (n=7).
Then the Cell Counting kit-8 (DOJINDO LABORATORIES) was added to each well by 10 μL, the plate was placed in a carbon dioxide incubator (5 volume % carbon dioxide, 37° C.) for 2 hr, and the absorbance at 450 nm was measured using a microplate reader.
Similar culture and treatment were performed without adding the solution of L-citrulline and used as the control.
The measurement results were converted to relative values (%) with the absorbance in the control as 100, and shown as mean±standard error in FIG. 5.
(In general: Tetrazolium dyes change colour on reduction, which living cells bring about.)

For experiment [2], the system named is VEGF production in hair papilla cells. Briefly: VEGF production in hair papilla cells (ELISA of culture supernatant). Conditions: human hair papilla cells, cultured 3 days, vs control. The protocol: Using a papilla cell growth medium (PCGM) (Toyobo Co., Ltd.), human hair papilla cells (Toyobo Co., Ltd.) were cultured for 4 days on a collagen-coated dish, and seeded on a collagen-coated 48 well plate at a cell density of 1.2×10^4 cells/0.3 mL/well. The cells were cultured for one day in a carbon dioxide incubator (5 volume % carbon dioxide, 37° C.), and used for the evaluation of the VEGF production amount.
For the evaluation of the VEGF production amount, 20 kinds of amino acids were mixed at the composition shown in Table 1, the components other than amino acids were composed as in Dulbecco's modified Eagle medium (DMEM), glucose was added at 1 g/L, and the resulting medium was used as an evaluation medium.
L-citrulline, L-tryptophan, and L-glutamine were respectively dissolved in the evaluation medium to prepare each solution.
In the above-described hair papilla cell culture medium on the collagen-coated plate, the medium was replaced with the evaluation medium, the above-described respective solutions of L-citrulline, L-tryptophan, and L-glutamine were added at a given concentration, and the cells were cultured for 3 days at 37° C., 5 volume % carbon dioxide (n=4 for L-citrulline, L-tryptophan, and L-glutamine at each addition concentration).
(§1) Then, the supernatant of the culture medium was collected, centrifuged at 1500 rpm, and the supernatant was collected and cryopreserved at −30° C.
Similar culture and treatment were performed without adding each solution of L-citrulline, L-tryptophan, and L-glutamine and used as the control.
The concentration of VEGF in the supernatant of the culture was measured by thawing the collected supernatant and using the VEGF Enzyme-Linked ImmunoSorbent Assay (ELISA) kit (Abcam Plc.).
The measurement results were converted to relative values (%) with the VEGF concentration in the control as 100, and shown as mean±standard error in FIGS. 1 to 3.
In general terms: ELISA stands for enzyme-linked immunosorbent assay.

Experiment [3] deals with human hair papilla cells. Briefly: Proliferation of hair papilla cells, ornithine (Cell Counting kit-8). Conditions: cultured one day, P<0.05 or P<0.01, FIG. 6. As to the method:
In the same manner as in Experimental Example 1, human hair papilla cells were cultured for 4 days, and seeded on a collagen-coated 96 well plate at a cell density of 2.5×10^3 cells/0.1 mL/well. The cells were cultured for one day in a carbon dioxide incubator (5 volume % carbon dioxide, 37° C.), and used for the evaluation of the proliferation of hair papilla cells. For the evaluation of the proliferation of hair papilla cells, a medium having the same amino acid composition as the evaluation medium used in Experimental Example 1 and other components diluted at a ¼ concentration was used as the evaluation medium.
L-ornithine was dissolved in the above-mentioned evaluation medium to prepare a solution. […]
Then the Cell Counting kit-8 (DOJINDO LABORATORIES) was added to each well by 10 μL, the plate was placed in a carbon dioxide incubator (5 volume % carbon dioxide, 37° C.) for 2 hr, and the absorbance at 450 nm was measured using a microplate reader. […]
The measurement results were converted to relative values (%) with the absorbance in the control as 100, and shown as mean±standard error in FIG. 6.

For experiment [4], the system named is FGF7 production in hair papilla cells. Nature of the experiment: FGF7 production in hair papilla cells (ELISA of culture supernatant). The conditions noted are these: human hair papilla cells, cultured 3 days, vs control, P<0.05 or P<0.01, FIG. 4. As to the method:
In the same manner as in Experimental Example 1, human hair papilla cells were cultured for 4 days, and seeded on a collagen-coated 48 well plate at a cell density of 1.2×10^4 cells/0.3 mL/well. The cells were cultured for one day in a carbon dioxide incubator (5 volume % carbon dioxide, 37° C.), and used for the evaluation of the FGF7 production amount. For the evaluation of the FGF7 production amount, the same evaluation medium as in Experimental Example 1 was used.
L-ornithine was dissolved in the evaluation medium to prepare a solution.
In the above-mentioned hair papilla cell culture medium on the collagen-coated plate, the medium was replaced with the evaluation medium, the above-mentioned solution of L-ornithine was added at a given concentration, and the cells were cultured for 3 days at 37° C., 5 volume % carbon dioxide (n=3 at each addition concentration).
Similar culture and treatment were performed without adding the solution of L-ornithine, and used as the control.
as §1
The concentration of FGF7 in the supernatant of the culture was measured by thawing the collected supernatant and using the FGF7 Enzyme-Linked ImmunoSorbent Assay (ELISA) kit (Abcam Plc.). […]

For `NC(=O)NCCCC(N)C(=O)O` [L-citrulline, 2-amino-5-(carbamoylamino)pentanoic acid], the “number of hair papilla cells as compared with the control” value in experiment [1] is reported as “significant increase”. Moreover, the “addition concentration at which a significant increase in the VEGF production was observed” value in experiment [2] (P<0.01 or P<0.001, FIG. 1) was “not less than 4.56 μM”.

Take `NC(=O)CCC(N)C(=O)O` [L-glutamine, 2-amino-4-carbamoylbutanoic acid]: the “addition concentration at which a significant increase in the VEGF production was observed” value in experiment [2] (P<0.01 or P<0.001, FIGS. 2, 3) is listed as “not less than 0.44 mM”.

As to `NCCCC(N)C(=O)O` [L-ornithine, 2,5-diamino pentanoic acid], the “number of hair papilla cells as compared with the control” value in experiment [3] (756 μM) and in experiment [3] (3.7 mM) was “significant increase” each time. Further, the “addition concentration at which a significant increase in the FGF7 production amount was observed” value in experiment [4] is “not less than 151 μM”.

Consider `N[C@@H](Cc1c[nH]c2ccccc12)C(=O)O` [L-tryptophan, 2-amino-3-(indolyl)propionic acid], for which the “addition concentration at which a significant increase in the VEGF production was observed” value in experiment [2] (P<0.01 or P<0.001, FIGS. 2, 3) is given as “not less than 0.01 mM”.
